We go through one compound from patent US20240247035A1, “STAPLED ANTIMICROBIAL PEPTIDES (STAMPS) AND USES THEREOF” (Lytica Therapeutics, Inc., priority 2021, published 2024).

Molecules are shown by their SMILES. Bridge positions count the residues as written; N and C are the ends. Square brackets hold non-standard residues; d marks the D form. Peptide text beside a SMILES is read from it. S5 = C=CCCC[C@](C)(N)C(=O)O

Data set [1] has as its system P. aeruginosa. It counts as cell-based, Pseudomonas aeruginosa. As to conditions: 20-24 hours at 37° C., no visible bacterial growth. As to the method:
(§1) Antimicrobial Activity Assay: The following microbroth dilution protocol was adapted from CLSI to determine the minimum inhibitory concentration (MIC) of StAMPs. Briefly, Mueller-Hinton broth (MHB) or cation-adjusted Mueller-Hinton broth (MHB II) was prepared and autoclaved. Then, a colony of bacterial cells was picked and grown overnight in broth at 37° C. and then diluted and allowed to grow again for 3-4 hours. Serial dilutions of peptide stocks in water (10 μl) were prepared using clear round-bottom polypropylene 96-well plates. Then 90 μl of bacteria in broth was added to give a final inoculum of 5×10^5 CFU/ml. The plates were then covered with porous tape to reduce evaporation and incubated for 20-24 hours at 37° C. The MIC was the minimum peptide concentration at which no visible bacterial growth was observed.

Data set [2] has as its system S. aureus. Type of data set: cell-based, Staphylococcus aureus. Conditions: 20-24 hours at 37° C., no visible bacterial growth. On the procedure:
as §1

Data set [3] in a line: 48 hours cytotoxicity assay (CellTiter-Glo), liver toxicity. Type of data set: cell-based. Conditions: human; 48 hours of incubation, CellTiter-Glo; read-out: Inhibitory Concentration at 50% Cytotoxicity (IC50) Human Liver Cells (HepG2). In outline: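 HepG2 cells (EMEM, 10% FBS) attached 4 h, then exposed to serial dilutions of StAMPs (from 5 mg/mL water stock) or vehicle for 48 h at 37° C. Viability read by CellTiter-Glo luminescence after 10 min at room temperature.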
Background: ATP-based viability assays read luminescence as a measure of living cells.

Data set [4] relates to E. coli. Type of data set: cell-based, Escherichia coli. Conditions: 20-24 hours at 37° C., no visible bacterial growth. As to the method:
as §1

Data set [5] deals with K. pneumoniae. Type of data set: cell-based, Klebsiella pneumoniae. As to conditions: 20-24 hours at 37° C., no visible bacterial growth. As to the method: as §1
Data set [6] can be described thus: 90 minute cytotoxicity assay (LDH release), renal toxicity. Conditions: human; 90 minutes of incubation, LDH; read-out: Inhibitory Concentration at 50% Cytotoxicity (IC50) Human Renal Proximal Tubule Epithelial Cells (RPTEC). It counts as cell-based. In outline: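 RPTEC in growth-factor-supplemented MEM were exposed overnight-plated to serial dilutions of StAMPs (from 5 mg/mL water stock) or vehicle for 90 min at 37 °C. Released LDH in medium was measured with LDH reagent for 10 min, absorbance at 490 nm.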
On the technique in general: LDH in the medium is a marker of cell lysis.

The test system of data set [7] is A. baumannii. It counts as cell-based, Acinetobacter baumannii. As to conditions: 20-24 hours at 37° C., no visible bacterial growth. On the procedure: as §1

With `CC[C@H](C)[C@@H]1NC(=O)[C@@](C)(NC(=O)[C@H](CC(C)C)NC(=O)[C@H](CC(N)=O)NC(=O)[C@H](CCCCN)NC(=O)[C@H](CCCCN)NC(=O)[C@H](CCCCN)NC(=O)[C@H](CCCCN)NC(=O)CNC(=O)[C@H](CCCCN)NC(=O)[C@]2(C)CCCC=CCCC[C@](C)(NC(=O)CN)C(=O)N[C@@H](Cc3ccccc3)C(=O)N[C@@H](CO)C(=O)N[C@@H](CCCCN)C(=O)N2)CCCC=CCCC[C@@](C)(C(=O)N[C@@H](CCCCN)C(=O)NCC(N)=O)NC(=O)CNC(=O)[C@H](CO)NC1=O` [compound 28] (H-G[S5]FSK[S5]KGKKKKNL[S5]ISG[S5]KG-NH2; staple 2-6, 15-19), in data set [1], the “Minimum Inhibitory Concentration (MIC) P. aeruginosa” value turned out to be 6 µg/mL. Besides, the “Minimum Inhibitory Concentration (MIC) S. aureus” value in data set [2] was >64 µg/mL. Also, in data set [3], the IC50 at 48 hours is > 200 µg/mL. For the same compound, the “Minimum Inhibitory Concentration (MIC) E. coli” value in data set [4] was 64 µg/mL. In addition, the “Minimum Inhibitory Concentration (MIC) K. pneumoniae” value in data set [5] was >64 µg/mL. Besides, the IC50 at 90 min in data set [6] was > 200 µg/mL. Further, the “Minimum Inhibitory Concentration (MIC) A. baumannii” value in data set [7] was 6 µg/mL.
